We go through four molecules from US10281476B2, “Methods to identify modulators of RyR calcium channels” (REGENTS OF THE UNIVERSITY OF MINNESOTA, priority 2013, dated 2019).

The experiment concerns RyR. As to the kind of experiment: Pilot FLT-FRET screen of NIH Clinical Collection 1 with D-FKBP and A-CaM near their Kd. Type of experiment: binding. The following applies: preliminary screen. From the text:
The optimal concentration of A-CaM may vary from sarcoplasmic reticulum to cell samples, but using a concentration of A-CaM that is at or near its Kd will allow detection of enhanced CaM binding by FRET assays. Compounds that modulate CaM binding are expected to also affect RyR channel function, which can optionally be determined in secondary functional assays. […] A pilot screen of NIH Clinical Collection 1 used donor labeled FKBP and acceptor labeled CaM near their Kd.
Using the method illustrated in FIGS. 3 and 4, a preliminary screen of NIH Clinical Collection 1 (NCC1, 446 compounds) was conducted. The concentrations of A-CaM and D-FKBP were near their Kd. […] In FIG. 36, we represented the effect of compounds on FRET as E(compound)/E(control) (E/E0). Values outside the 3SD threshold (dotted line) are considered hits. Increased FRET (E/E0>1) indicates increased FKBP and/or CaM binding; decreased FRET (E/E0<1) indicates decreased FKBP and/or CaM binding.

In the case of `O=C1N(c2ccccc2)c2ccccc2C1(Cc1ccncc1)Cc1ccncc1` [Linopirdine], the “effect on FRET, E(compound)/E(control); hit = outside the 3SD threshold” value (“effect on FRET, E(compound)/E(control)” below) is reported as “hits”.

For `Nc1nc(Cl)nc2c1ncn2[C@H]1C[C@H](O)[C@@H](CO)O1` [Cladribine], the “effect on FRET, E(compound)/E(control)” value is recorded as “hits”.

Regarding `NC(=O)c1cccnc1` [Nicotinamide], the “effect on FRET, E(compound)/E(control)” value was “hits”. For `C=CC[C@@H]1/C=C(\C)C[C@H](C)C[C@H](OC)[C@H]2O[C@@](O)(C(=O)C(=O)N3CCCC[C@H]3C(=O)O[C@H](/C(C)=C/[C@@H]3CC[C@@H](O)[C@H](OC)C3)[C@H](C)[C@@H](O)CC1=O)[C@H](C)C[C@@H]2OC` [Tacrolimus], the “effect on FRET, E(compound)/E(control)” value is recorded as “among the hits”. Moreover, the “effect on FRET, E(compound)/E(control)” value (listed as FK506) is on record as “reducing FRET”.
